Measured values as given in PubChem BioAssay (NCI).
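Each compound was tested at five concentrations against cells in 96-well plates for 48 hours. Definition used: TGI = concentration required for complete inhibition of growth.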

Assays:
Assay in all cases: NCI tumour cell line growth inhibition, 48 h
HOP-18 NSCLC = test system: HOP-18 NSCLC
SNB-78 CNS = test system: SNB-78 CNS
XF 498 CNS = test system: XF 498 CNS
DMS 114 small cell lung = test system: DMS 114 small cell lung
DLD-1 colon = test system: DLD-1 colon
SN12K1 renal = test system: SN12K1 renal
P388/ADR leukemia = test system: P388/ADR leukemia
P388 leukemia = test system: P388 leukemia
LXFL 529 NSCLC = test system: LXFL 529 NSCLC
RXF-631 renal = test system: RXF-631 renal

CC(=O)CC(=O)CCC(=O)O gave a TGI (HOP-18 NSCLC) greater than 100 µM, a TGI (SNB-78 CNS) greater than 100 µM and a TGI (XF 498 CNS) greater than 100 µM. The TGI (DMS 114 small cell lung) was greater than 100 µM and the TGI (DLD-1 colon) was greater than 100 µM.
Work on Cc1csc(NC(=NCCN2CCOCC2)Nc2nc(C)cs2)n1 yielded a TGI (SN12K1 renal) greater than 100 µM, a TGI (HOP-18 NSCLC) greater than 100 µM and a TGI (P388/ADR leukemia) greater than 100 µM. For the same molecule, the TGI (SNB-78 CNS) was greater than 100 µM, the TGI (XF 498 CNS) was greater than 100 µM and the TGI (P388 leukemia) was greater than 31.6 µM. It also gave a TGI (DMS 114 small cell lung) greater than 100 µM and a TGI (DLD-1 colon) greater than 100 µM.
Work on CC(=O)O[C@H]1CC[C@@]2(C)[C@H](CC[C@@H]3[C@@H]2CC[C@]2(C)[C@@H](c4ccc(=O)oc4)C[C@H]4O[C@]342)C1 yielded a TGI (SN12K1 renal) of 1.83 µM, a TGI (HOP-18 NSCLC) of 9.72 µM and a TGI (P388/ADR leukemia) of 125 µM. For the same molecule, the TGI (SNB-78 CNS) was 4.8 µM, the TGI (XF 498 CNS) was 3.27 µM and the TGI (P388 leukemia) was 125 µM. It also gave a TGI (DMS 114 small cell lung) of 1.03 µM and a TGI (DLD-1 colon) of 7.34 µM.
Molecule CC1(C2CCC3(C)OC3C2)CO1 (stereo not given) has a TGI (LXFL 529 NSCLC) greater than 100 µM, a TGI (HOP-18 NSCLC) greater than 100 µM and a TGI (SNB-78 CNS) greater than 100 µM. For the same molecule, the TGI (XF 498 CNS) was greater than 100 µM, the TGI (DMS 114 small cell lung) was greater than 100 µM and the TGI (RXF-631 renal) was greater than 100 µM. The TGI (DLD-1 colon) was greater than 100 µM.
In the case of O=C1C=CC(=O)c2c(O)c(N3CCN(CCOCCO)CC3)c(Cl)c(O)c21, the TGI (LXFL 529 NSCLC) is reported as 0.45 µM, the TGI (HOP-18 NSCLC) is reported as 2.73 µM and the TGI (SNB-78 CNS) is reported as 1.35 µM. For the same molecule, the TGI (XF 498 CNS) was 1.88 µM and the TGI (DLD-1 colon) was 0.401 µM.
C#CCC1(C(=O)OCC)C(=O)c2ccccc2N(C)C1=O (stereo not given) gave a TGI (LXFL 529 NSCLC) greater than 100 µM, a TGI (HOP-18 NSCLC) greater than 100 µM and a TGI (SNB-78 CNS) greater than 100 µM. It also gave a TGI (XF 498 CNS) of 95.9 µM, a TGI (DMS 114 small cell lung) greater than 100 µM and a TGI (RXF-631 renal) greater than 100 µM. It also gave a TGI (DLD-1 colon) greater than 100 µM.
